Measured values as given in patent US6001331A, “Method of imaging amyloid deposits” (Warner-Lambert Company, priority 1998, dated 1999).
pIC50: −log10 of the molar value. Where two headings read alike, the source gives them in different places.

Key:
[1] = biological target: T1, βA(1-40) amyloid aggregates (Homo sapiens, UniProt P05067); test: Competition assay with Thioflavin T (ThT) for binding to β(1-40) amyloid aggregates, fluorescence 96-well plate
T1 construct: lyophilized β(1-40) protein powder (which may be purchased from BACHEM); purchased BACHEM
Excerpt: Amyloid aggregates containing β(1-40) protein can also be made by methods well known to those skilled in the art. See, for example, Burdick D., Soreghan B., Kwon M., Kosmoski J., Knauer M., Henschen A., Yates J., Cotman C., and Glabe C. Assembly and aggregation properties of synthetic Alzheimer's A4/β amyloid peptide analogs. J. Biol. Chem., 267:546-554 (1992), which is hereby incorporated by reference. Briefly, lyophilized β(1-40) protein powder (which may be purchased from BACHEM) was dissolved at 10 mg/mL in hexafluoro-2-propanol and subsequently diluted to 500 μg/mL in 25 mM sodium phosphate buffer, pH 6 to induce the α-helix to β-sheet transition resulting in aggregate formation.
(§1) The ability of compounds of Formula I to compete with Thioflavin T (ThT) for binding to amyloid aggregates was measured using fluorescence in a 96-well fluorescence plate assay. As a compromise between sensitivity and signal and to facilitate comparisons between different amyloid fibrils, ThT is present at a concentration equal to the Kmapp of the particular amyloid fibril type and fibril concentrations yielding a similar fluorescence intensity are used. Insulin: 0.5 μM ThT, 2 μg per well. β(1-40): 20 μM ThT, 5 μg/well. All solutions are in 25 mM sodium phosphate buffer, pH 6.0, and the assay is performed at room temperature.
(§2) Using a multichannel pipettor, 100 μL of dilutions of the compound to be tested (0.001-30 μM final concentration in 3-fold steps) are placed in the bottom of Corning U-well polystyrene plates (Corning Company, Corning, N.Y.). 50 μL of ThT are then added to each well. The amyloid fibrils are then added to each well in a volume of 100 μL rapidly to mix the well contents. The plates are read within 5 to 30 minutes in a Millipore Cytofluor 2350 96-well fluorescence plate reader using an excitation filter of 440 nm (20 nm bandpass) and an emission filter of 485 nm (20 nm bandpass). ThT dye blanks were used to correct for the minimal fluorescence background which are subtracted from all data.
(§3) Results are expressed as % maximal fluorescence (no competing compound). […]

[2] = biological target: Insulin amyloid aggregates; test: Competition assay with Thioflavin T (ThT) for binding to insulin amyloid aggregates, fluorescence 96-well plate; conditions: 0.5 μM ThT, 2 μg per well fibrils, 25 mM sodium phosphate pH 6.0, room temperature
Experimental: Burke M. J. and Rougevie M. A., Cross-β Protein Structures. I. Insulin Fibrils. […] Briefly, lyophilized insulin protein powder dissolved at 10 mg/mL in 50 mM HCl was alternately heated to 95° C. and frozen in dry ice to form amyloid aggregates.
as §1
as §2, with “The plates are read within 5 to 30 minutes in a Millipore Cytofluor 2350 96-well fluorescence plate reader using an excitation filter of 440 nm (20 nm bandpass) and an emission filter of 485 nm (20 nm bandpass).” left out
as §3

[3] = 20 μM ThT, 5 μg/well fibrils, 25 mM sodium phosphate pH 6.0, room temperature, read-out: βA(1-40), IC50

T1 sequence (P05067 672-711 limits assumed): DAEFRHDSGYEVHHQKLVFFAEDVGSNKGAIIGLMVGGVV

## CN(C)c1ccc(/C=C/c2nc3cc(Cl)ccc3s2)cc1 [Example 1, (E)-{4-[2-(5-Chlorobenzothiazol-2-yl)vinyl]phenyl}dimethylamine]
[1]; [3]
  pIC50: < 4.00
[2]
  pIC50: 4.00

## CN(C)c1ccc(/C=C/c2nc3ccccc3s2)cc1 [Example 2, (E)-{4-[2-(Benzothiazol-2-yl)vinyl]phenyl}dimethylamine]
[1]; [3]
  pIC50: < 4.00

## Cc1ccc2sc(/C=C/c3ccc(N(C)C)cc3)nc2c1 [Example 3, (E)-Dimethyl-{4-[2-(5-methylbenzothiazol-2-yl)vinyl]phenyl}amine]
[2]
  pIC50: 6.05

## Cc1ccc2nc(/C=C/c3ccc(N(C)C)cc3)sc2c1 [Example 4, (E)-Dimethyl-{4-[2-(6-methylbenzothiazol-2-yl)vinyl]phenyl}amine]
[2]
  pIC50: 5.82

## CN(C)c1ccc(/C=C/c2nc3ccc(N(C)C)cc3s2)cc1 [Example 5, (E)-{2-[2-(4-Dimethylaminophenyl)vinyl]benzothiazol-6-yl}dimethylamine]
[1]; [3]
  pIC50: < 4.00

## CN(C)c1ccc(/C=C/c2sc3ccccc3[n+]2Cc2ccccc2)cc1 [Example 6, (E)-3-Benzyl-2-[2-(4-dimethylaminophenyl)vinyl]benzothiazol-3-ium bromide]
[1]
  pIC50: 6.96
[2]
  pIC50: 7.92

## CC[n+]1c(/C=C/c2ccc(N(C)C)cc2)sc2ccccc21 [Example 7, (E)-2-[2-(4-Dimethylaminophenyl)vinyl]-3-ethylbenzothiazol-3-ium iodide]
[1]; [3]
  pIC50: 6.40
[2]
  pIC50: 8.22

## CN(C)c1ccc(/C=C/c2[s+]c3ccc4ccccc4c3n2C)cc1 [Example 8, (E)-2-[2-(4-Dimethylaminophenyl)vinyl]-1-methylnaphtho[1,2-d]thiazol-3-ium iodide]
[1]; [3]
  pIC50: 6.68
[2]
  pIC50: 7.28

## CN(C)c1ccc(/C=C/c2sc3ccccc3[n+]2C)cc1 [Example 9, (E)-2-[2-(4-Dimethylaminophenyl)vinyl]-3-methylbenzothiazol-3-ium iodide]
[1]; [3]
  pIC50: 6.00

## CCCCCCC[n+]1c(/C=C/c2ccc(N(C)C)cc2)sc2ccccc21 [Example 12, (E)-2-[2-(4-Dimethylaminophenyl)vinyl]-3-heptylbenzothiazol-3-ium iodide]
[1]; [3]
  pIC50: 7.03

## CN(C)c1ccc(/C=C/c2sc3ccc(F)cc3[n+]2C)cc1 [Example 14, (E)-2-[2-(4-Dimethylaminophenyl)vinyl]-5-fluoro-3-methylbenzothiazol-3-ium iodide]
[1]; [3]
  pIC50: 6.00

## COc1ccc2c(c1)sc(/C=C/c1ccc(N(C)C)cc1)[n+]2C [Example 19, (E)-2-[2-(4-Dimethylaminophenyl)vinyl]-6-methoxy-3-methylbenzothiazol-3-ium iodide]
[1]; [3]
  pIC50: 6.52

## CN(C)c1ccc(/C=C/c2sc3ccccc3[n+]2Cc2ccccc2-c2ccccc2)cc1 [Example 28, (E)-3-Biphenyl-2-ylmethyl-2-[2-(4-dimethylaminophenyl)vinyl]benzothiazol-3-ium bromide]
[2]
  pIC50: 7.10

## CN(C)c1ccc(/C=C/c2sc3ccccc3[n+]2C/C=C/c2ccccc2)cc1 [Example 32, (E,E)-2-[2-(4-Dimethylaminophenyl)vinyl]-3-(3-phenylallyl)benzothiazol-3-ium bromide]
[2]
  pIC50: 7.10

## CN(C)c1ccc(/C=C/c2sc3ccccc3[n+]2CCCCOc2ccccc2)cc1 [Example 35, (E)-2-[2-(4-Dimethylaminophenyl)vinyl]-3-(4-phenoxybutyl)benzothiazol-3-ium iodide]
[1]; [3]
  pIC50: 6.77

## CN(C)c1ccc(/C=C/c2sc3ccccc3[n+]2CCCCCc2ccccc2)cc1 [Example 36, (E)-2-[2-(4-Dimethylaminophenyl)vinyl]-3-(5-phenylpentyl)benzothiazol-3-ium iodide]
[1]; [3]
  pIC50: 6.77

## CN(C)c1ccc(/N=N/c2nc3ccccc3s2)cc1 [Example 47, [4-(Dimethylamino)phenylazo]benzothiazole]
[1]; [3]
  pIC50: 4.66

## CN(C)c1ccc(/N=N/c2nc3c(ccc4ccccc43)s2)c2ccccc12 [Example 52, Dimethyl[4-(naphtho[1,2-d]thiazol-2-ylazo)naphthalen-1-yl]amine]
[2]
  pIC50: 4.80
